Entries after “also recorded” stand apart in the source; their conditions may differ.
Experiments:
[1] = test system: ES-cell-derived embryoid bodies; assay: HB9+ motor neuron generation in embryoid bodies; type: cell-based, mouse
Protocol: (§1) For some experiments, ES cells were grown on a monolayer of stromal PA6 cell line (Riken Cell Bank, Japan), in DFK5 medium alone, or supplemented with 2 μM RA, as described (Kawasaki et al., Induction of midbrain dopaminergic neurons from ES cells by stromal cell-derived inducing activity. Neuron, 28:31-40, 2000).
To begin to examine the capacity of mouse ES cells to generate motor neurons, the inventors grew mouse ES cells in aggregate culture for 2 days, a procedure that results in the formation of embryoid bodies (EBs) (Bain et al., Embryonic stem cells express neuronal properties in vitro. Dev. Biol., 168:342-57, 1995).

HBG3 ES cells = assay: eGFP+ motor neuron generation in HBG3 ES-cell-derived embryoid bodies; type: cell-based, mouse
Protocol: as §1
A transgenic mouse line was established by pronucleus injection of a construct that used a ˜9 kB fragment comprising the 5′ upstream region of the murine HB9 gene (Arber et al., Requirement for the homeobox gene Hb9 in the consolidation of motor neuron identity. Neuron, 23:659-764, 1999), followed by a 5′ splice substrate (Choi et al., A generic intron increases gene expression in transgenic mice. Mol. Cell Biol., 11:3070-74, 1991), an eGFP gene, and a bovine growth hormone polyadenylation signal. The ˜9 kB Not1 fragment of HB9 is sufficient to direct eGFP expression to develop motor neurons in transgenic embryos examined from E9.5 to P10. In one transgenic line (mHB9-Gfp1b), the pattern of eGFP expression corresponded closely to the profile of expression of endogenous HB9. ES-cell lines were derived from mHB9-Gfp1b heterozygous blastocysts, as previously described (Abbondanzo et al., Derivation of embryonic stem cell lines. Methods Enzymol., 225:803-23, 1993). One selected line (HBG3) was tested for its capacity to integrate into developing mouse blastocysts and its capacity for germline transmission.
HBG3 ES-cell embryoid bodies were dissociated using a papain dissociation system (Worthington Biochemical Corp.). Cells expressing high levels of eGFP were sorted from the cell suspension with a Beckman-Coulter Altra flow cytometer, based on their eGFP fluorescence and forward light scatter using the gate indicated in the plot. Typically, 20-30% of input cells expressed high levels of GFP. The analysis established that this eGFP-Hi cell group constituted a >95% pure population of motor neurons. The yield of a typical FACS sort is 3000-5000 GFP-Hi cells per EB.

[2] = test system: neural progenitor cells in embryoid bodies; assay: Progenitor transcription factor expression (ventralization) in RA-exposed embryoid bodies; type: cell-based, mouse
[3] = test system: ES cells / embryoid bodies; assay: Suppression and induction of a neural character in differentiating embryoid bodies; type: cell-based, mouse; conditions: for acquisition of neural precursor cell fate (Sox1): 4 days of differentiation, factor present for entire culture (Wnt3a conditioned medium 1×, BMP4 10 ng/ml, SU5402 5 μM); for neural precursor or post-mitotic neural cells: EBs differentiated 4 days with RA+Wnt3a or RA+BMP4
Protocol: (§2) Medium was replaced every 2 days. Medium was supplemented by factors, at the start of ES-cell aggregation/differentiation (day 0) or on day 2, as indicated below, and cultured for a further 2-8 days.
(§3) Soluble Wnt3a and control-conditioned medium (Wilson et al., The status of Wnt signaling regulates neural and epidermal fates in the chick embryo. Nature, 411:325-30, 2001) were prepared, as previously described (Shibamoto et al., Cytoskeletal reorganization by soluble Wnt-3a protein signalling. Genes Cells, 3:659-70, 1998). Soluble Frizzled 8 (mFrz8CRD-IgG) and control-conditioned medium were prepared by transfecting HEK-293 cells with mfz8CRD-IgG (Hsieh et al., Biochemical characterization of Wnt-frizzled interactions using a soluble, biologically active vertebrate Wnt protein. Proc. Natl. Acad. Sci. USA, 96:3546-51, 1999) or LacZ reporter construct (Wilson et al., An early requirement for FGF signalling in the acquisition of neural cell fate in the chick embryo. Curr. Biol., 10:421-29, 2000). The transfected HEK-293 cells were then incubated for 48 h in OPTI-MEM medium. mFrzCRD-1gG conditioned medium was used undiluted.
Immunohistochemical localization of proteins was performed, as previously described (Yamada et al., Control of cell pattern in the developing nervous system: polarizing activity of the floor plate and notochord. Cell, 64:635-47, 1991). Neural precursor (neural progenitor) cells were delineated by expression of rabbit anti-Sox1. Post-mitotic neurons were delineated using mouse anti-Pax6. Otx1/Otx2 and Eng1, which are co-expressed at the midbrain/hindbrain boundary, were used to define cells of a midbrain-like character (Davis and Joyner, Expression patterns of the homeo box-containing genes En-1 and En-2 and the proto-oncogene int-1 diverge during mouse development. Genes Dev., 2:1736-44, 1988). Hox C6 and HoxC8 were used to delineate cells of a spinal-cord character. Krox20 (Covance) is expressed in hindbrain cells, in regions fated to give rise to rhombomeres 3 and 5; thus, co-expression of Sox1 and Otx1/Otx2, in the absence of Eng1 or Krox 20, was used to delineate an anterior/prosencephalic character (Lemaire and Kessel, Gastrulation and homeobox genes in chick embryos. Mech. Dev., 67:3-16, 1997).
In control experiments, 15-30% of cells attained a neural-cell fate when subjected to aggregation in differentiation medium. To suppress a neural-cell fate, medium was supplemented by Wnt3a conditioned medium (1×), BMP4 (10 ng/ml), or SU5402 (5 μM), at the start of ES-cell aggregation (day 0). To induce a neural-cell fate, medium was supplemented by mFRZ8CRD conditioned medium (2×) at the start of ES-cell aggregation (day 0). ES cells were differentiated for 4-8 days.

[4] = test system: ES-cell-derived neural precursor cells; assay: Caudalization of a neural character by Wnt3a; type: cell-based, mouse; conditions: Wnt3a at different concentrations and/or times; 2 days differentiation medium, then 2 days with Wnt3a
Protocol: as §2, §3
Immunohistochemical localization of proteins was performed, as previously described (Yamada et al., Control of cell pattern in the developing nervous system: polarizing activity of the floor plate and notochord. Cell, 64:635-47, 1991). […]

mouse ES cells = assay: Directed differentiation of ES cells into LH2-positive dorsal spinal neurons; type: cell-based; conditions: embryoid bodies grown in the presence of BMP7
Protocol: Embryonic stem (ES) cells were grown on mouse embryonic fibroblasts in ES-cell medium, as described in Example 1. ES-cell colonies were partially dissociated with 0.05% trypsin/EDTA, after 2 days, and cultured in DFNB medium (neurobasal medium (Gibco) mixed with DMEM (Specialty Media, EmbryoMax) and F12 (Gibco), in a 2:1:1 ratio, supplemented with 1×B27 supplement, 0.1 mM 2-mercaptoethanol (Sigma), 2 mM L-glutamine (Gibco), and 1× penicillin/streptomycin (Gibco)) (˜10^5 cells/ml).
After 2 days in culture, embryoid bodies (EBs) were plated in DFNB medium supplemented with retinoic acid (100 nM to 1 μM) (Sigma). After 1-2 days in culture, in the presence of retinoic acid, EBs were collected, rinsed 2-3 times with PBS, and plated in DFNB medium supplemented with human BMP4 (10 ng/ml; R&D systems) or BMP7 (20 ng/ml). After an additional 4 days in culture, cells were fixed using 4% paraformaldehyde, and processed for immunocytochemistry.

[5] = RA-treated EBs, 10 nM Hh-Ag1.3, 3 days

CNC1CCC(N(Cc2cccc(-c3ccncc3)c2)C(=O)c2sc3ccccc3c2Cl)CC1 (centres unmarked) [Hh-Ag1.3]
HB9+ neurons in EBs ([1]; Hh-Ag1.3 (1 μM) for 5 days without RA): No HB9^+ neurons were generated; also recorded: did not contain HB9^+ neurons | HB9+ neurons per section ([1]; RA-treated EBs plus SHh (300 nM) or Hh-Ag1.3 (1 μM)): 509±57 HB9^+ neurons/section | HB9+ neurons per EB ([1]; RA-treated EBs plus SHh (300 nM) or Hh-Ag1.3 (1 μM), ~10-15 sections per EB): 5000 HB9^+ neurons | toxicity for cells differentiating in EBs (HBG3 ES cells; 10 μM Hh-Ag1.3): became toxic for cells differentiating in EBs | generation of eGFP+/HB9+ motor neurons (HBG3 ES cells; Hh-Ag1.3 (1 μM) in the absence of RA): failed to generate eGFP^+/HB9^+ motor neurons | eGFP+/HB9+ motor neurons as share of total cells in EBs (HBG3 ES cells; RA and 1 μM Hh-Ag1.3): 20-30% | cells in EBs expressing eGFP (HBG3 ES cells; RA plus 2.2 μM Hh-Ag1.3, 5 days): 22.5% | number of eGFP+/HB9+ motor neurons (HBG3 ES cells; RA-exposed HBG3 EBs plus Hh-Ag1.3, concentration-dependent (0 to 2.2 μM)): increased | BrdU incorporation by Olig2+ cells ([2]; Hh-Ag1.3-exposed EBs, 3 days with RA): incorporated BrdU | Nkx6.1+ and Olig2+ cells [2, 5]: a few Nkx6.1^+ and Olig2^+ cells were detected | Pax7 expression [2, 5]: completely repressed | number of Dbx1+ cells [2, 5]: reduced | number of Pax6+ and Irx3+ cells [2, 5]: increased | Dbx1 expression ([2]; RA-treated EBs, 1 μM Hh-Ag1.3): virtually eliminated | HNF3β+ floor plate cells ([2]; RA-treated EBs, 1 μM Hh-Ag1.3): no HNF3β^+ floor plate cells were detected | Nkx2.2+ cells ([2]; RA-treated EBs, 1 μM Hh-Ag1.3): a few Nkx2.2^+ cells were also induced | number of Irx3+ and Pax6+ cells ([2]; RA-treated EBs, 1 μM Hh-Ag1.3): markedly reduced | number of Nkx6+ and Olig2+ cells ([2]; RA-treated EBs, 1 μM Hh-Ag1.3): large increase

CC1=C(/C=C/C(C)=C/C=C/C(C)=C/C(=O)O)C(C)(C)CCC1 [RA, retinoic acid]
HB9+ neurons per section ([1]; RA-exposed EBs grown alone for 5 days): 7±2 HB9^+ neurons/section

Cc1c[nH]c(/C=C2\C(=O)Nc3ccccc32)c1CCC(=O)O [SU5402]
acquisition of neural precursor cell fate (Sox1) [3]: could not acquire a neural precursor cell fate

Wnt3a
acquisition of neural precursor cell fate (Sox1) [3]: could not acquire a neural precursor cell fate | neural precursor or post-mitotic neural cells [3]: no neural precursor or post-mitotic neural cells were present | caudalization of neural cells [4]: progressively caudalized to hindbrain and spinal cord character

B1: BMP4: human BMP4 protein (bone morphogenetic protein), R&D systems (protein, UniProt P12644 293-408, looked up)
Bone morphogenetic protein 4: SPKHHSQRARKKNKNCRRHSLYVDFSDVGWNDWIVAPPGYQAFYCHGDCPFPLADHLNSTNHAIVQTLVNSVNSSIPKACCVPTELSAISMLYLDEYDKVVLKNYQEMVVEGCGCR
acquisition of neural precursor cell fate (Sox1) [3]: could not acquire a neural precursor cell fate | neural precursor or post-mitotic neural cells [3]: no neural precursor or post-mitotic neural cells were present

B2: BMP7: bone morphogenetic protein 7 (protein, UniProt P18075 293-431, looked up)
Bone morphogenetic protein 7: STGSKQRSQNRSKTPKNQEALRMANVAENSSSDQRQACKKHELYVSFRDLGWQDWIIAPEGYAAYYCEGECAFPLNSYMNATNHAIVQTLVHFINPETVPKPCCAPTQLNAISVLYFDDSSNVILKKYRNMVVRACGCH
dorsal spinal neurons (LH2) and their progenitors (Math1) (mouse ES cells): numerous dorsal neurons and their progenitors were observed

From patent US7632679B2, “Systems and methods for screening for modulators of neural differentiation” (The Trustees of Columbia University in the City of New York, priority 2002, dated 2009)
